Experimental data: patent publication US11884647B2, “Compounds and methods for targeting pathogenic blood vessels” (THE REGENTS OF THE UNIVERSITY OF CALIFORNIA, priority 2019, dated 2024)
“Also recorded” adds a separate entry of the source.

Tests used:
[1] = tested on: PLXDC1; test: PLXDC1 receptor activation assay (Gfi1b promotor luciferase reporter); format: cell-based; conditions: treatment 1 day; basal activity of PLXDC1-expressing cells = 1
Description: (§1) FIG. 5A-B show activation of PLXDC1 and PLXDC2 by small molecules. […] All compound treatments were done for 1 day. Basal promotor activity of the PLXDC1-expressing cells is defined as 1.

[2] = tested on: tumor endothelial cells (CT26.CL25 colon cancer tumor); test: Colon CT26 ex vivo model of tumor angiogenesis; format: cell-based; conditions: Mus musculus, CT26, 48 h, read-out: Cell death
Procedure, shortened: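 Explant pieces of CT26 tumor (about 0.075 mm^3) were embedded in Matrigel and grown in endothelial growth medium at 37 °C for about 7 days until endothelial outgrowth appeared, then treated. Cell death was read about 48 h after drug addition by fluorescein diacetate (live) and propidium iodide (dead) staining with red/green imaging.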

[3] = tested on: tumor endothelial cells (LL/2 lung cancer tumor); test: Lung LL2 ex vivo model of tumor angiogenesis; format: cell-based, mouse; conditions: Mus musculus, Endothelial cell, 48 h, read-out: Cell death
Procedure, shortened: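 Read-out is live/dead fluorescence imaging (fluorescein diacetate green, propidium iodide red, 10 min at 37° C) at 2×, taken e.g. 48 h after drug addition. Fragments of mouse LL2 tumor are cultured in Matrigel with endothelial growth medium, usually 4 days, until new endothelial cells grow out, then treated.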

[4] = tested on: PLXDC2; test: PLXDC2 receptor activation (Gfi1b promotor luciferase reporter); format: cell-based; conditions: treatment 1 day
Description: as §1

[5] = tested on: choroidal endothelial cells; test: Ex vivo model of choroidal angiogenesis (choroidal neovascularization); format: cell-based; conditions: 10 μM; for effect on new endothelial cells in choroidal angiogenesis: treatment starts after 7 days of angiogenesis, lasts two days, live/dead staining
Procedure: FIG. 2A-E. Comparison of compound 369 with the current anti-angiogenic drug in an ex vivo model of choroidal angiogenesis. A. A schematic diagram of the timeframe of the experiment. […] Treatment lasts for two days before cell death and survival are analyzed. B. Control experiment without any drug treatment at day 7. The white circle in the middle delineates the piece of choroid/RPE that was embedded to initiate neovascularization. C. […] Eylea was added at 10 μM. […] The compound was added at 10 μM. In B-D, green cells are live cells and red cells are dead cells. E. Quantitation of the experiments described in B-D. The amount of new endothelial cells in the untreated control is defined as 100%.

**Q.** How did the “Gfi1b promotor activity in PLXDC1-expressing cells” value [1] turn out when O=c1[nH]cc(F)c(=O)[nH]1 [Fluorouracil, reference compound] was run?
**A.** does not activate this promoter

**Q.** With CCCCCCCOc1ccc(S(=O)(=O)c2cnc3ccc([S+](C)[O-])cc3c2N2CCCN(C)CC2)cc1 (stereo not drawn) [compound 220, 3-((4-(heptyloxy)phenyl)sulfonyl)-4-(4-methyl-1,4-diazepan-1-yl)-6-(methylsulfinyl)quinoline] as the molecule, how does the cytotoxicity at 40 µM [2] read?
**A.** 100%

**Q.** And the cytotoxicity at 40 µM [3]?
**A.** 100%

**Q.** With CCCCCCCOc1ccc(S(=O)(=O)c2cnc3ccc([S+](C)[O-])cc3c2N2CCC(N3CCCCC3)CC2)cc1 (stereo not drawn) [compound 221, 4-([1,4′-bipiperidin]-1′-yl)-3-((4-(heptyloxy)phenyl)sulfonyl)-6-(methylsulfinyl)quinoline] as the molecule, how does the cytotoxicity at 40 µM [2] read?
**A.** 100%

**Q.** What about the cytotoxicity at 40 µM [3] of the same molecule?
**A.** 100%

**Q.** With CCCCOc1ccc(S(=O)(=O)c2cnc3ccc([S+](C)[O-])cc3c2N2CCC(N3CCC(O)(c4ccccc4)CC3)CC2)cc1 (stereo not drawn) [compound 238, 1′-(3-((4-butoxyphenyl)sulfonyl)-6-(methylsulfinyl)quinolin-4-yl)-4-phenyl-[1,4′-bipiperidin]-4-ol] as the molecule, how does the cytotoxicity at 10 µM [2] read?
**A.** 10%

**Q.** And the cytotoxicity at 40 µM [3]?
**A.** 100%

**Q.** What does the source list for CCCCOc1ccc(S(=O)(=O)c2cnc3ccc([S+](C)[O-])cc3c2N2CCC(N3CCCN(C)CC3)CC2)cc1 (stereo not drawn) [compound 241, 3-((4-butoxyphenyl)sulfonyl)-4-(4-(4-methyl-1,4-diazepan-1-yl)piperidin-1-yl)-6-(methylsulfinyl)quinoline]?
**A.** cytotoxicity at 10 µM [2]: 0%; cytotoxicity at 40 µM [3]: 40%

**Q.** How did the cytotoxicity at 10 µM [2] turn out when CCCCCCCOc1ccc(S(=O)(=O)c2cnc3ccc([S+](C)[O-])cc3c2N2CCC(N3CCN(C)CC3)CC2)cc1 (stereo not drawn) [compound 253, 3-((4-(heptyloxy)phenyl)sulfonyl)-4-(4-(4-methylpiperazin-1-yl)piperidin-1-yl)-6-(methylsulfinyl)quinoline] was run?
**A.** 80%

**Q.** What about the cytotoxicity at 20 µM [3] of the same molecule?
**A.** 100%

**Q.** With CCCCCCCOc1ccc(S(=O)(=O)c2cnc3ccc([S+](C)[O-])cc3c2N2CCC(N3CCCC(O)C3)CC2)cc1 (stereo not drawn) [compound 254, 1′-(3-((4-(heptyloxy)phenyl)sulfonyl)-6-(methylsulfinyl)quinolin-4-yl)-[1,4′-bipiperidin]-3-ol] as the molecule, how does the cytotoxicity at 10 µM [2] read?
**A.** 40%

**Q.** And the cytotoxicity at 20 µM [3]?
**A.** 100%

**Q.** How did the cytotoxicity at 10 µM [2] turn out when CCCCCCCOc1ccc(S(=O)(=O)c2cnc3ccc([S+](C)[O-])cc3c2N2CCCN(CCN3CCCCC3)CC2)cc1 (stereo not drawn) [compound 255, 3-((4-(heptyloxy)phenyl)sulfonyl)-6-(methylsulfinyl)-4-(4-(2-(piperidin-1-yl)ethyl)-1,4-diazepan-1-yl)quinoline] was run?
**A.** 0%

**Q.** And the cytotoxicity at 20 µM [3]?
**A.** 10%

**Q.** Which cytotoxicity at 10 µM [2] does the source give for CCCCCCCOc1ccc(S(=O)(=O)c2cnc3ccc([S+](C)[O-])cc3c2N2CCC(N3CCCN(C)CC3)CC2)cc1 (stereo not drawn) [compound 256, 3-((4-(heptyloxy)phenyl)sulfonyl)-4-(4-(4-methyl-1,4-diazepan-1-yl)piperidin-1-yl)-6-(methylsulfinyl)quinoline] here?
**A.** 90%

**Q.** What about the cytotoxicity at 20 µM [3] of the same molecule?
**A.** 100%

**Q.** CCCCCCCOc1ccc(S(=O)(=O)c2cnc3ccc([S+](C)[O-])cc3c2N2CCC(N3CCN(CCO)CC3)CC2)cc1 (stereo not drawn) [compound 257, 2-(4-(1-(3-((4-(heptyloxy)phenyl)sulfonyl)-6-(methylsulfinyl)quinolin-4-yl)piperidin-4-yl)piperazin-1-yl)ethan-1-ol] was tested. Which cytotoxicity at 10 µM [2] did it give?
**A.** 100%

**Q.** What about the cytotoxicity at 20 µM [3] of the same molecule?
**A.** 100%

**Q.** What does the source list for CCCCCCCOc1ccc(S(=O)(=O)c2cnc3ccc([S+](C)[O-])cc3c2N2CCC(N3CCC(N4CCCCC4)CC3)CC2)cc1 (stereo not drawn) [compound 258, 4-([1,4′:1′,4″-terpiperidin]-1″-yl)-3-((4-(heptyloxy)phenyl)sulfonyl)-6-(methylsulfinyl)quinoline]?
**A.** cytotoxicity at 10 µM [2]: 100%; cytotoxicity at 20 µM [3]: 100%

**Q.** How did the cytotoxicity at 20 µM [2] turn out when CCCCCCCOc1ccc(S(=O)(=O)c2cnc3ccc([S+](C)[O-])cc3c2N2CCN(C)CC2)cc1 (stereo not drawn) [compound 259, 3-((4-(heptyloxy)phenyl)sulfonyl)-4-(4-methylpiperazin-1-yl)-6-(methylsulfinyl)quinoline] was run?
**A.** 100%

**Q.** What about the cytotoxicity at 20 µM [3] of the same molecule?
**A.** 95%

**Q.** CCCCCCCCCCCCOc1ccc(S(=O)(=O)c2cnc3ccc([S+](C)[O-])cc3c2N2CCC(N3CCC(N4CCCCC4)CC3)CC2)cc1 (stereo not drawn) [compound 342, 4-([1,4′:1′,4″-terpiperidin]-1″-yl)-3-((4-(dodecyloxy)phenyl)sulfonyl)-6-(methylsulfinyl)quinoline] was tested. Which “Gfi1b promotor activity in PLXDC1-expressing cells” value [1] did it give?
**A.** highly activated the promotor activity in PLXDC1-expressing cells

**Q.** And the cytotoxicity at 20 µM [3]?
**A.** 60%

**Q.** And the “Gfi1b promotor activity in PLXDC2-expressing cells” value [4]?
**A.** activated the promotor activity in PLXDC2-expressing cells

**Q.** For CCCCCCCCCCCCCCOc1ccc(S(=O)(=O)c2cnc3ccc([S+](C)[O-])cc3c2N2CCC(N3CCC(N4CCN(CCO)CC4)CC3)CC2)cc1F (stereo not drawn) [compound 369, 2-(4-(1′-(3-((3-fluoro-4-(tetradecyloxy)phenyl)sulfonyl)-6-(methylsulfinyl)quinolin-4-yl)-[1,4′-bipiperidin]-4-yl)piperazin-1-yl)ethanol], which “effect on new endothelial cells in choroidal angiogenesis” value [5] is on record?
**A.** can kill the new endothelial cells in choroidal angiogenesis

**Q.** What about the “effect on healthy tissue (choroid and RPE)” value ([5]; two days treatment) of the same molecule?
**A.** Choroid and RPE are still alive after the treatment; also recorded: without affecting the healthy tissue

**Q.** What about the cytotoxicity at 20 µM [3] of the same molecule?
**A.** 20%

**Q.** How did the “effect on new endothelial cells in choroidal angiogenesis” value [5] turn out when “Eylea: "The most commonly used drug for choroidal neovascularization, Eylea, can inhibit choroidal endothelial cell growth (as expected of an antiangiogenesis drug)" [reference compound]” was run?
**A.** can inhibit choroidal endothelial cell growth
